Laboratory results published in publication PMC8033753, “Proadrenomedullin N-Terminal 20 Peptides (PAMPs) Are Agonists of the Chemokine Scavenger Receptor ACKR3/CXCR7” (ACS Pharmacology & Translational Science, 2021).
Like-named read-outs stand apart in the source and are kept apart here. Where no end group is shown, it is not given here.

Columns and labels:
[1] = target: T1, ACKR3 (Homo sapiens, UniProt P25106); assay: β-arrestin-2 recruitment to ACKR3, nanoluciferase complementation (NanoBiT) in HEK cells; assay type: cell-based; conditions: for activity toward ACKR3 (β-arrestin-2 recruitment), in words: concentration range up to 9 μM
T1 construct: expressed in transfected cells; host or cells: HEK293T
T1 sequence (P25106 whole entry): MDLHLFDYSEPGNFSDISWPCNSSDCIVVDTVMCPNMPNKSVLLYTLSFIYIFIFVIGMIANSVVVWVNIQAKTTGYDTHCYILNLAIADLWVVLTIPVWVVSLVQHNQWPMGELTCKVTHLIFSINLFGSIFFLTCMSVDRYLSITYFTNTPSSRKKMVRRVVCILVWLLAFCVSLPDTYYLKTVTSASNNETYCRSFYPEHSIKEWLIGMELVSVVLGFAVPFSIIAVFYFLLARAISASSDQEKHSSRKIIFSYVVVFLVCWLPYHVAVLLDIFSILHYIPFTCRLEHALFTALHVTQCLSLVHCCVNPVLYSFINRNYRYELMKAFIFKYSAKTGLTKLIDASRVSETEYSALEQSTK
Method: (§1) Ligand-induced recruitment of β-arrestin, miniGi or miniGq proteins (engineered GTPase domain of Gα subunit)[46],[47] to the receptors was monitored using NanoBiT technology (Promega), as previously described.[27],[48] HEK293T cells (5 × 10^6 cells) were seeded in 10 cm dishes, and 24 h later, the cells were cotransfected with pNBe plasmids encoding the receptor C-terminally fused to SmBiT and β-arrestin, miniGi, or miniGq N-terminally fused to LgBiT. After 24 h, the cells were detached and incubated for 25 min at 37 °C with Nano-Glo Live Cell substrate diluted 200-fold, distributed into white 96-well plates (1 × 10^5 cells/well), and treated with the indicated concentrations of peptides. Luminescence was recorded during 20 min with a Mithras LB940 luminometer (Berthold Technologies). For the concentration–response curves, the signal recorded with a saturating concentration of full agonist for each receptor was set as 100%. For receptor screening experiments, results were expressed as fold vehicle, and an agonist chemokine (100 nM) listed in the IUPHAR repository of chemokine receptor ligands was included as a positive control for each receptor.
(§2) Concentration–response curves were fitted to the four-parameter Hill equation using an iterative, least-squares method (GraphPad Prism version 8.0.1). All curves were fitted to data points generated from the mean of at least three independent experiments. Statistical tests, i.e., ordinary one-way ANOVA and post hoc analysis were performed with GraphPad Prism 8.0.1. The p-values are indicated as follows: *, p < 0.05; **, p < 0.01; ***, p < 0.001; and ****, p < 0.0001.

[2] = target: T2, MrgX2 (Homo sapiens, UniProt Q96LB1); assay: β-arrestin-2 recruitment to MrgX2, NanoBiT in HEK cells; assay type: cell-based
T2 construct: expressed in transfected cells; host or cells: HEK293T
T2 sequence (Q96LB1 1-330): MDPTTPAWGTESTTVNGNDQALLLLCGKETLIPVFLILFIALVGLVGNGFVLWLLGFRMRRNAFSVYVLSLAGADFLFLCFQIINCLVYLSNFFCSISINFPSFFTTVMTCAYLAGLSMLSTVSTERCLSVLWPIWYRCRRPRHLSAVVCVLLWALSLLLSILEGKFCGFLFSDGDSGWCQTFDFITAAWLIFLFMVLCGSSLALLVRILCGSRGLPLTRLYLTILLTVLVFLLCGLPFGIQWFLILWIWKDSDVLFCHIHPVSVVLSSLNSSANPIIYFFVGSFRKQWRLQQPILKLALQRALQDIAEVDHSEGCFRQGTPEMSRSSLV
Method: as §1, §2

[3] = target: T3, GPR182 (Homo sapiens, UniProt O15218); assay: β-arrestin-2 recruitment to GPR182 (NanoBiT screen); assay type: cell-based; conditions: peptides 3 μM
T3 construct: expressed in transfected cells; host or cells: HEK293T
T3 sequence (O15218 whole entry, species assumed): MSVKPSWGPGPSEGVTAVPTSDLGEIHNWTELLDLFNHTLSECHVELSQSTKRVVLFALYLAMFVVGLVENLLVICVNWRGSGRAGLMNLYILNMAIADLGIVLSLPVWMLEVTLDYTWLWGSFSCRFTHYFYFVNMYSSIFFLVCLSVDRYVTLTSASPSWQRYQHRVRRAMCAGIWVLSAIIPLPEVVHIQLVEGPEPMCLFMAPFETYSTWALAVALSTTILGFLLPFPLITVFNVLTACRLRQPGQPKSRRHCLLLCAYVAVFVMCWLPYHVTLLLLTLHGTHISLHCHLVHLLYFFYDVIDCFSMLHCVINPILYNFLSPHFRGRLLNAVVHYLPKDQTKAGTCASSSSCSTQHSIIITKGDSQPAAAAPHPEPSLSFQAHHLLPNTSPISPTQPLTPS
Method: as §1

[4] = test system: HEK-ACKR3 cells; assay: PAMP-12-FAM uptake by HEK-ACKR3 cells, imaging flow cytometry; assay type: cell-based, human; conditions: chemokine 200 nM, 15 min preincubation; PAMP-12-FAM 3 μM, 45 min at 37 °C
Method: HEK293T or HEK-ACKR3 cells were harvested in Opti-MEM and distributed into 96-well plates (3 × 10^5 cells/well). […] At 24 h post-transfection, the cells were harvested and treated as described above. Dead cells were excluded using Zombie NIR viability dye (BioLegend). Images of 1 × 10^4 in-focus, living single cells were acquired with an ImageStream Mark II imaging flow cytometer (Amnis) equipped with an extended depth of field (EDF) module and using 60× magnification. Samples were analyzed using Ideas6.2 software. The number of spots per cell was determined using a mask-based software wizard.

[5] = test system: all known classical and atypical human chemokine receptors; assay: β-arrestin-2 recruitment screen toward all chemokine receptors (NanoBiT); assay type: cell-based; conditions: peptides 3 μM, fold change over vehicle
Method: as §1

[6] = pEC50 ± S.E.M, β-arrestin-2 recruitment, ACKR3 (Supplementary Table 2), HEK cells, NanoBiT, three independent experiments
[7] = EC50, β-arrestin-2 recruitment toward MrgX2, HEK cells, NanoBiT, normalised to full agonist, three independent experiments
[8] = pEC50 ± S.E.M, β-arrestin recruitment, MrgX2 (Supplementary Table 1), HEK cells, NanoBiT, NA: no activity detected in the concentration range tested

| Compound | EC50 [1, 6] [µM] | EC50 [2] [µM] | further results |
| --- | --- | --- | --- |
| FRKKWNKWALSK-NH2 | 1.02 | 0.794 |  |
| FRKKANKWALSR-NH2 | 7.59 | 2 |  |
| FRKKWNKWALFR-NH2 | 0.575 | 0.209 |  |
| ARLDVASEFRKKWNKWALSR-NH2 [PAMP] |  |  | EC50 [1]: > 10 µM; activity toward GPR182, in words [3]: no activity; EC50 [2, 7]: 6.2 µM; EC50 [2, 8]: 6.17 µM |
| FRKKWNKWALTR-NH2 | 0.575 | 0.269 |  |
| FRKKWNKAALSR-NH2 | 2.24 | 2.51 |  |
| FRKKWDKWALSR-NH2 | 0.589 | 0.479 |  |
| FRRKWNKWALSR-NH2 | 0.468 | 2.75 |  |
| CT: CGRP family peptide [reference compound] |  |  | activity toward ACKR3 (β-arrestin-2 recruitment), in words ([1]; HEK cells, NanoBiT): No activity |
| FRKKWNKYALSR-NH2 | 0.776 | 0.741 |  |
| FAKKWNKWALSR-NH2 | 9.33 | 1 |  |
| FRKKYNKWALSR-NH2 | 3.16 | 2.45 |  |
| FRKKWNKWGLSR-NH2 | 1.58 | 1.1 |  |
| FRKKWAKWALSR-NH2 | 0.832 | 0.479 |  |
| FRKKWQKWALSR-NH2 | 0.776 | 4.68 |  |
| FRKKWNKFALSR-NH2 | 1.15 | 1.05 |  |
| FRKKWNAWALSR-NH2 | 1.26 | 0.55 |  |
| FRKRWNKWALSR-NH2 | 0.759 | 1.91 |  |
| FRKKWNKWALS-NH2 [FRKKWNKWALS -] | 2.57 | 1.55 |  |
| FRKKFNKWALSR-NH2 | 4.27 | 0.589 |  |
| FRKKWNRWALSR-NH2 | 0.331 | 1.95 |  |
| CSCC[C@H](NC(=O)[C@H](CC(C)C)NC(=O)CNC(=O)[C@H](Cc1ccccc1)NC(=O)[C@H](Cc1ccccc1)NC(=O)[C@H](CCC(N)=O)NC(=O)[C@H](CCC(N)=O)NC(=O)[C@@H]1CCCN1C(=O)[C@H](CCCCN)NC(=O)[C@@H]1CCCN1C(=O)[C@@H](N)CCCNC(=N)N)C(N)=O [substance P, reference compound] |  |  | activity toward ACKR3 (β-arrestin-2 recruitment), in words ([1]; HEK cells, NanoBiT): no activity |

| Compound | EC50 [1, 6] [µM] | EC50 [2] [µM] | further results |
| --- | --- | --- | --- |
| CC(C)C[C@H](NC(=O)[C@H](C)NC(=O)[C@H](Cc1c[nH]c2ccccc12)NC(=O)[C@H](CCCCN)NC(=O)[C@H](CC(N)=O)NC(=O)[C@H](Cc1c[nH]c2ccccc12)NC(=O)[C@H](CCCCN)NC(=O)[C@H](CCCCN)NC(=O)[C@H](CCCNC(=N)N)NC(=O)[C@@H](N)Cc1ccccc1)C(=O)N[C@@H](CO)C(=O)N[C@@H](CCCNC(=N)N)C(N)=O [PAMP-12] |  |  | activity toward GPR182, in words [3]: no activity; EC50 [2, 7]: 0.785 µM; EC50 [2, 8]: 0.776 µM |
| CXCL12: chemokine, full agonist of ACKR3; purchased from PeproTech |  |  | effect of chemokine preincubation on PAMP-12-FAM accumulation in HEK-ACKR3 cells, in words [4]: reduced PAMP-12 accumulation to background levels |
| DVASEFRKKWNKWALSR-NH2 [PAMP 4-20] | 178 | 3.31 |  |
| YRKKWNKWALSR-NH2 | 6.76 | 0.912 |  |
| FRKAWNKWALSR-NH2 | 0.269 | 0.661 |  |
| FRKKWNKWAFSR-NH2 | 0.955 | 0.741 |  |
| RKKWNKWALSR-NH2 [- RKKWNKWALSR] | 28.8 | 2.09 |  |
| FRKKWNKWAASR-NH2 | 2.88 | 1.48 |  |
| ARKKWNKWALSR-NH2 | 46.8 | 0.933 |  |
| CC[C@H](C)[C@H](NC(=O)[C@H](CCC(N)=O)NC(=O)[C@H](Cc1c[nH]cn1)NC(=O)[C@H](C)NC(=O)[C@H](CC(C)C)NC(=O)[C@H](CCCCN)NC(=O)[C@H](CCC(N)=O)NC(=O)[C@@H](NC(=O)[C@@H](NC(=O)[C@@H]1CSSC[C@H](NC(=O)CNC(=O)[C@H](Cc2ccccc2)NC(=O)[C@H](CO)NC(=O)[C@H](CCCNC(=N)N)NC(=O)[C@H](CC(C)C)NC(=O)CNC(=O)[C@H](CCC(N)=O)NC(=O)[C@H](Cc2ccccc2)NC(=O)[C@H](CC(N)=O)NC(=O)[C@H](CC(N)=O)NC(=O)[C@H](CCSC)NC(=O)[C@H](CO)NC(=O)[C@H](CCC(N)=O)NC(=O)[C@H](CCCNC(=N)N)NC(=O)[C@@H](N)Cc2ccc(O)cc2)C(=O)N[C@@H](CCCNC(=N)N)C(=O)N[C@@H](Cc2ccccc2)C(=O)NCC(=O)N[C@@H]([C@@H](C)O)C(=O)N1)[C@@H](C)O)C(C)C)C(=O)N[C@@H](Cc1ccc(O)cc1)C(=O)N[C@@H](CCC(N)=O)C(=O)N[C@@H](Cc1ccccc1)C(=O)N[C@H](C(=O)N[C@@H](CC(=O)O)C(=O)N[C@@H](CCCCN)C(=O)N[C@@H](CC(=O)O)C(=O)N[C@@H](CCCCN)C(=O)N[C@@H](CC(=O)O)C(=O)N[C@@H](CC(N)=O)C(=O)N[C@H](C(=O)N[C@@H](C)C(=O)N1CCC[C@H]1C(=O)N[C@@H](CCCNC(=N)N)C(=O)N[C@@H](CO)C(=O)N[C@@H](CCCCN)C(=O)N[C@H](C(=O)N[C@@H](CO)C(=O)N1CCC[C@H]1C(=O)N[C@@H](CCC(N)=O)C(=O)NCC(=O)N[C@@H](Cc1ccc(O)cc1)C(N)=O)[C@@H](C)CC)C(C)C)[C@@H](C)O [ADM] |  |  | activity toward GPR182, in words [3]: no activity |
| FKKKWNKWALSR-NH2 | 3.31 | 1.45 |  |
| FRKKWNKWALSA-NH2 | 11.2 | 5.75 |  |
| AMY: CGRP family peptide (KCNTATCATQRLANFLVHSSNNFGAILSSTNVGSNTY; not fully specified (C-terminus, bridges); cysteine pairing not given here; UniProt P10997 34-70, looked up) [reference compound] |  |  | activity toward ACKR3 (β-arrestin-2 recruitment), in words ([1]; HEK cells, NanoBiT): No activity |
| FRKKWNKWFLSR-NH2 | 0.513 | 0.417 |  |
| AFRKKWNKWALSR-NH2 | 2 | 0.891 |  |
| KWNKWALSR-NH2 [PAMP(12–20)] |  |  | agonist activity toward the other 24 chemokine receptors tested, in words [5]: do not activate |
| FRKKWNKWALAR-NH2 | 0.912 | 0.339 |  |
| WNKWALSR-NH2 [PAMP 13-20] | 11.7 |  |  |
| FRAKWNKWALSR-NH2 | 1.35 | 0.977 |  |
| ARLDVASEFRKKWNKWA [PAMP1-17] | 331 | 95.5 |  |
| CC(C)C[C@H](NC(=O)[C@H](C)NC(=O)[C@H](Cc1c[nH]c2ccccc12)NC(=O)[C@H](CCCCN)NC(=O)[C@H](CC(N)=O)NC(=O)[C@H](Cc1c[nH]c2ccccc12)NC(=O)[C@H](CCCCN)NC(=O)[C@H](CCCCN)NC(=O)[C@H](CCCNC(=N)N)NC(=O)[C@@H](N)Cc1ccccc1)C(=O)N[C@@H](CO)C(=O)N[C@@H](CCCNC(=N)N)C(=O)O | 1.58 | 2.29 |  |
